# Source: patent US8088775B2, “Pharmaceutical composition for treating hair loss” (priority 2004, dated 2012)
# Where “and” joins values, the source holds several entries; their conditions need not be identical. Equal values may be shown once. Where a name gives a salt, the structure may show the parent alone. Read-outs that look alike come from different tables or passages of the source.
# Key:
# [1] = Body weight of castrated male SD rats after one week; conditions: hormone alone (TP 10 μg or DHTP 20 μg) + vehicle oral, solvent control 122.1
# Procedure: (§1) Each compound is administered orally continuously for one week according to the method of administration shown in Table 1, prostate glands are removed from the rats in each group while watching, and their weights are measured.
# [2] = test system: prostate glands of castrated male SD rats; test: Anti-androgenic active effects in castrated male SD rats: weight of prostate glands after TP or DHTP inducement; type: in vivo; conditions: for Average weight of prostate glands, prostatic hyperplasia inducement group: hormone alone hypodermic (TP 10 μg or DHTP 20 μg) + vehicle oral; for Average weight of prostate glands, prostatic hyperplasia inducement group / Average weight of prostate glands: one week, solvent control 23.3±1.5 mg; for Weight of prostate glands after inducement with DHTP / Size of prostate glands enlarged by inducement with TP: one week oral
# Procedure: In-Vivo Experiment for the Observation of Anti-Androgenic Active Effects of Castrated Male SD Rats (1)
# as §1
# [3] = test system: prostate glands of normal male SD rats; test: Anti-androgenic effects in normal male SD rats: weight of prostate glands after 2 weeks; type: in vivo; conditions: oral; for Average weight of prostate glands: normal 8-week-old male SD rats, solvent control 333.8; for Weight of prostate glands versus solvent control group: normal male SD rats
# Text: In-Vivo Experiment for the Observation of Anti-Androgenic Effects of Normal Male SD Rats (2)
# After the experiments are completed, the changes in the weight of prostate glands removed from normal SD rats and the changes in the weight of normal SD rats measured are shown in Tables 4 and 5 and diagrammatized in FIGS. 3 and 4.
# [4] = test system: hairs; conditions: Example 6; tablets 10 mg once a day for six months; FIG. 5A/5B
# Text: Clinical Experiments to Study Effects of Epilation
# The effects of epilation are investigated by administering the tablets thus manufactured once a day.
# [5] = test system: hair loss; conditions: for Degree of efficacy: 10-20% (number of persons) / Degree of efficacy: 20-40% (number of persons) / Degree of efficacy: 40-60% (number of persons) / Degree of efficacy: 60-80% (number of persons) / Degree of efficacy: Greater than 90% (number of persons) / Degree of efficacy: No effect (number of persons) / Time taken for the efficacy to be shown: 3-5 days (number of persons) / Time taken for the efficacy to be shown: 7 days (number of persons) / Time taken for the efficacy to be shown: 14 days (number of persons) / Time taken for the efficacy to be shown: 21 days (number of persons) / Time taken for the efficacy to be shown: 28 days (number of persons) / Time taken for the efficacy to be shown: Minor effect (number of persons): Example 3 primary specimens, extruded material, 10 mg effective component once a day
# Text: Clinical Experiment to Study Effects for the Prevention of Hair Loss, and for Hair Toning and Hair Growth (1)
# The extruded material thus obtained is dried in the floating air layer. The therapeutical efficacy for the prevention of hair loss is experimented clinically by using thus obtained extruded material as shown in Tables 6 and 7. The objects of clinical experiments are selected based on 35 male and female healthy adults older than 20 years old who suffer from symptoms of hair loss. The therapeutical efficacy of female hair loss is also tested as females suffering from hair loss are included in the specimen population (including 5 males in the placebo control group).
# [6] = test system: hair loss
# Text: Clinical Experiment to Study Effects for the Prevention of Hair Loss, and for Hair Toning and Hair Growth (2)
# The effect for the prevention of hair loss is investigated by administering the tablets thus manufactured to 20 healthy adult males who are older than 20 years old and selected to be specimens (including 5 males in the placaebo control group) once a day.
# [7] = test system: hair loss; conditions: for Degree of efficacy: 10-20% (number of persons) / Degree of efficacy: 20-40% (number of persons) / Degree of efficacy: 40-60% (number of persons) / Degree of efficacy: 60-80% (number of persons) / Degree of efficacy: Greater than 90% (number of persons) / Degree of efficacy: No effect (number of persons) / Time taken for the efficacy to be shown: 3-5 days (number of persons) / Time taken for the efficacy to be shown: 7 days (number of persons) / Time taken for the efficacy to be shown: 14 days (number of persons) / Time taken for the efficacy to be shown: 21 days (number of persons) / Time taken for the efficacy to be shown: 28 days (number of persons) / Time taken for the efficacy to be shown: Minor effect (number of persons): Example 5 tertiary specimens, tablets three times a day (30 mg=3×10 mg)
# Procedure: Clinical Experiment to Study Effects for the Prevention of Hair Loss, and for Hair Toning and Hair Growth (3)
# The effects for the prevention of hair loss are investigated by administering the tablets thus manufactured to 5 healthy adult males who are older than 20 years old and selected to be specimens three times a day (30 mg=3×10 mg).
# [8] = test system: hair loss; conditions: external application; cited from earlier work
# [9] = Example 3, 10 mg once a day, no effects with placebo
# [10] = Example 4 secondary specimens, Total, tablets, 10 mg effective component once a day
structure (smiles),measurement,setting,value
"CCC(=O)O[C@H]1CC[C@H]2[C@@H]3CC[C@H]4CC(=O)CC[C@]4(C)[C@H]3CC[C@]12C [DHTP, dihydrotestosterone propionate]","Average body weight, inducement group",[1],118.7
same,"Average weight of prostate glands, prostatic hyperplasia inducement group",[2],58.4 ± 2.0 mg and 58.4 mg
CC(C)(C)NC(=O)[C@H]1CC[C@H]2[C@@H]3CC[C@H]4NC(=O)C=C[C@]4(C)[C@H]3CC[C@]12C [finasteride],Average weight of prostate glands,"[2]; DHTP 20 μg hypodermic + drug oral daily (finasteride 0.5 mg, composition 5 mg)",53.1 ± 1.4 mg and 53.1 mg
same,Weight of prostate glands after inducement with DHTP,[2],not greatly affected
same,Average weight of prostate glands,"[2]; TP 10 μg hypodermic + drug oral daily (finasteride 0.5 mg, composition 5 mg)",24.5 ± 1.6 mg and 24.5 mg
same,Size of prostate glands enlarged by inducement with TP,[2],reduced to the normal size
same,Average weight of prostate glands,[3],220.0 mg
same,Weight of prostate glands versus solvent control group,[3],significantly lower
"O=C(O)COCCN1CCN(C(c2ccccc2)c2ccc(Cl)cc2)CC1 (centres unmarked) [composition of the present invention, 2-[2-[4-[(4-chlorophenyl)phenylmethyl]-1-piperazinyl]ethoxy]-acetic acid dihydrochloride]","Effects of epilation (photograph, naked eyes)",[4],considerable effects of epilation
same,"Effect of prevention of hair loss, time course",[5]; [9],hair loss is prevented in almost all specimens in about three weeks
same,Effects of the prevention of hair loss in males and females,[5]; [9],remarkable effects of the prevention of hair loss are observed both in males and females
same,Degree of efficacy: 10-20% (number of persons),[5]; Female (10),0
same,Degree of efficacy: 20-40% (number of persons),[5]; Female (10),0
same,Degree of efficacy: 40-60% (number of persons),[5]; Female (10),3
same,Degree of efficacy: 60-80% (number of persons),[5]; Female (10),6
same,Degree of efficacy: Greater than 90% (number of persons),[5]; Female (10),0
same,Degree of efficacy: No effect (number of persons),[5]; Female (10),1
same,Time taken for the efficacy to be shown: 3-5 days (number of persons),[5]; Female (10),0
same,Time taken for the efficacy to be shown: 7 days (number of persons),[5]; Female (10),1
same,Time taken for the efficacy to be shown: 14 days (number of persons),[5]; Female (10),6
same,Time taken for the efficacy to be shown: 21 days (number of persons),[5]; Female (10),2
same,Time taken for the efficacy to be shown: 28 days (number of persons),[5]; Female (10),0
same,Time taken for the efficacy to be shown: Minor effect (number of persons),[5]; Female (10),1
same,Degree of efficacy: 10-20% (number of persons),[5]; Male (20),0
same,Degree of efficacy: 20-40% (number of persons),[5]; Male (20),0
same,Degree of efficacy: 40-60% (number of persons),[5]; Male (20),6
same,Degree of efficacy: 60-80% (number of persons),[5]; Male (20),13
same,Degree of efficacy: Greater than 90% (number of persons),[5]; Male (20),1
same,Degree of efficacy: No effect (number of persons),[5]; Male (20),0
same,Time taken for the efficacy to be shown: 3-5 days (number of persons),[5]; Male (20),0
same,Time taken for the efficacy to be shown: 7 days (number of persons),[5]; Male (20),6
same,Time taken for the efficacy to be shown: 14 days (number of persons),[5]; Male (20),11
same,Time taken for the efficacy to be shown: 21 days (number of persons),[5]; Male (20),3
same,Time taken for the efficacy to be shown: 28 days (number of persons),[5]; Male (20),0
same,Time taken for the efficacy to be shown: Minor effect (number of persons),[5]; Male (20),0
same,Degree of efficacy: 10-20% (number of persons),[5]; Total,0
same,Degree of efficacy: 20-40% (number of persons),[5]; Total,0
same,Degree of efficacy: 40-60% (number of persons),[5]; Total,9
same,Degree of efficacy: 60-80% (number of persons),[5]; Total,19
same,Degree of efficacy: Greater than 90% (number of persons),[5]; Total,1
same,Degree of efficacy: No effect (number of persons),[5]; Total,1
same,Time taken for the efficacy to be shown: 3-5 days (number of persons),[5]; Total,0
same,Time taken for the efficacy to be shown: 7 days (number of persons),[5]; Total,7
same,Time taken for the efficacy to be shown: 14 days (number of persons),[5]; Total,17
same,Time taken for the efficacy to be shown: 21 days (number of persons),[5]; Total,5
same,Time taken for the efficacy to be shown: 28 days (number of persons),[5]; Total,0
same,Time taken for the efficacy to be shown: Minor effect (number of persons),[5]; Total,1
same,Color and thickness of newly coming out hairs,"[6]; Example 4, tablets 10 mg once a day",much stronger than those of old hairs
same,Effects for the prevention of hair loss,"[6]; Example 4, tablets 10 mg once a day, 15 people, no effects with placebo",superior within three weeks in all of 15 people
same,Degree of efficacy: 10-20% (number of persons),[6]; [10],0
same,Degree of efficacy: 20-40% (number of persons),[6]; [10],0
same,Degree of efficacy: 40-60% (number of persons),[6]; [10],5
same,Degree of efficacy: 60-80% (number of persons),[6]; [10],9
same,Degree of efficacy: Greater than 90% (number of persons),[6]; [10],1
same,Degree of efficacy: No effect (number of persons),[6]; [10],0
same,Time taken for the efficacy to be shown: 3-5 days (number of persons),[6]; [10],0
same,Time taken for the efficacy to be shown: 7 days (number of persons),[6]; [10],1
same,Time taken for the efficacy to be shown: 14 days (number of persons),[6]; [10],6
same,Time taken for the efficacy to be shown: 21 days (number of persons),[6]; [10],8
same,Time taken for the efficacy to be shown: 28 days (number of persons),[6]; [10],0
same,Time taken for the efficacy to be shown: Minor effect (number of persons),[6]; [10],0
same,Color and thickness of newly produced hairs,"[7]; Example 5, tablets 30 mg a day",much stronger than those of old hairs
same,Effects for the prevention of hair loss,"[7]; Example 5, tablets 30 mg a day, 5 people",superior within one week in all of 5 people
same,Degree of efficacy: 10-20% (number of persons),[7]; Male (5),0
same,Degree of efficacy: 20-40% (number of persons),[7]; Male (5),0
same,Degree of efficacy: 40-60% (number of persons),[7]; Male (5),0
same,Degree of efficacy: 60-80% (number of persons),[7]; Male (5),2
same,Degree of efficacy: Greater than 90% (number of persons),[7]; Male (5),3
same,Degree of efficacy: No effect (number of persons),[7]; Male (5),0
same,Time taken for the efficacy to be shown: 3-5 days (number of persons),[7]; Male (5),0
same,Time taken for the efficacy to be shown: 7 days (number of persons),[7]; Male (5),5
same,Time taken for the efficacy to be shown: 14 days (number of persons),[7]; Male (5),0
same,Time taken for the efficacy to be shown: 21 days (number of persons),[7]; Male (5),0
same,Time taken for the efficacy to be shown: 28 days (number of persons),[7]; Male (5),0
same,Time taken for the efficacy to be shown: Minor effect (number of persons),[7]; Male (5),0
same,Degree of efficacy: 10-20% (number of persons),[7]; Total (5),0
same,Degree of efficacy: 20-40% (number of persons),[7]; Total (5),0
same,Degree of efficacy: 40-60% (number of persons),[7]; Total (5),0
same,Degree of efficacy: 60-80% (number of persons),[7]; Total (5),2
same,Degree of efficacy: Greater than 90% (number of persons),[7]; Total (5),3
same,Degree of efficacy: No effect (number of persons),[7]; Total (5),0
same,Time taken for the efficacy to be shown: 3-5 days (number of persons),[7]; Total (5),0
same,Time taken for the efficacy to be shown: 7 days (number of persons),[7]; Total (5),5
same,Time taken for the efficacy to be shown: 14 days (number of persons),[7]; Total (5),0
same,Time taken for the efficacy to be shown: 21 days (number of persons),[7]; Total (5),0
same,Time taken for the efficacy to be shown: 28 days (number of persons),[7]; Total (5),0
same,Time taken for the efficacy to be shown: Minor effect (number of persons),[7]; Total (5),0
same,Average weight of prostate glands,"[2]; DHTP 20 μg hypodermic + drug oral daily (finasteride 0.5 mg, composition 5 mg), dihydrochloride",52.2 ± 1.1 mg and 52.2 mg
same,Weight of prostate glands after inducement with DHTP,[2],not greatly affected
same,Average weight of prostate glands,"[2]; TP 10 μg hypodermic + drug oral daily (finasteride 0.5 mg, composition 5 mg), dihydrochloride",25.1 mg
same,Size of prostate glands enlarged by inducement with TP,[2],reduced to the normal size
same,Average weight of prostate glands,[3],226.7 mg
same,Weight of prostate glands versus solvent control group,[3],significantly lower
"Nc1cc(N2CCCCC2)nc(N)[n+]1[O-] [Minoxidil, 6-(1-piperidinyl-2,4-pyrimidineamine-3-oxide)]",Reported side effects,[8],"contact dermatitis, dried mouth, lowering of blood pressure, dizziness"
"CCC(=O)O[C@H]1CC[C@H]2[C@@H]3CCC4=CC(=O)CC[C@]4(C)[C@H]3CC[C@]12C [TP, testosterone propionate]","Average weight of prostate glands, prostatic hyperplasia inducement group",[2],63.6 ± 3.2 mg and 63.6 mg
